Assay results from ChEMBL document CHEMBL3885861, “Open TG-GATES”.

Species: Rattus norvegicus
Test: Open TG-GATES - Regimen: Single
Type: toxicity, organism-based, Sprague-Dawley
Design: regimen Single, gender Male, age 6 weeks
Settings: in vivo, po, 5 mg/kg, route gavage, dose level Low; for APTT / Bas / Eos / Fbg / Hb / Ht / Lym / MCH / MCHC / MCV / Mono / Neu / PT / Plat / RBC / Ret / WBC: tissue Blood; for KIDNEY_L / KIDNEY_R / KIDNEY_TOTAL: tissue Kidney; for LIVER: tissue Liver; for A/G / ALP / ALT / AST / BUN / CRE / Ca / Cl / DBIL / GLC / IP / K / LDH / Na / PL / RALB / TBIL / TC / TG / TP / gamma-GTP: tissue Plasma

With `CC(=N)S` [THIOACETAMIDE] the TERMINAL_BW (9 h) was 186.4 g, the APTT (9 h) was 16.8 s and the Bas (9 h) was 0%. For the same compound, the Eos (9 h) was 0.6%, the Fbg (9 h) was 216.2 mg/dL and the Hb (9 h) was 12.8 g/dL. For the same compound, the Ht (9 h) was 39.3%, the Lym (9 h) was 79.2% and the MCH (9 h) was 21.2 pg. It also gave an MCHC (9 h) of 32.5%, an MCV (9 h) of 65.1 fL and a Mono (9 h) of 6.2%. It also gave a Neu (9 h) of 13.8%, a PT (9 h) of 12.3 s and a Plat (9 h) of 102.7 x10_4/uL. The RBC (9 h) was 606 x10_4/ul, the Ret (9 h) was 9.4% and the WBC (9 h) was 94.1 x10_2/uL. For the same compound, the KIDNEY_L (9 h) was 0.9 g, the KIDNEY_R (9 h) was 0.9 g and the KIDNEY_TOTAL (9 h) was 1.7 g. For the same compound, the LIVER (9 h) was 7.8 g, the A/G (9 h) was 2.3 and the ALP (9 h) was 794.4 IU/L. The ALT (9 h) was 32 IU/L, the AST (9 h) was 61.6 IU/L and the BUN (9 h) was 11.6 mg/dL. It also gave a CRE (9 h) of 0.5 mg/dL, a Ca (9 h) of 10.3 mg/dL and a Cl (9 h) of 103.8 meq/L. For the same compound, the DBIL (9 h) was 0.01 mg/dL, the GLC (9 h) was 180 mg/dL and the IP (9 h) was 9.8 mg/dL. It also gave a K (9 h) of 4.4 meq/L, an LDH (9 h) of 78.4 IU/L and a Na (9 h) of 137.4 meq/L. The PL (9 h) was 138.6 mg/dL, the RALB (9 h) was 3.8 g/dL and the TBIL (9 h) was 0.4 mg/dL. It also gave a TC (9 h) of 84.4 mg/dL, a TG (9 h) of 35.4 mg/dL and a TP (9 h) of 5.5 g/dL. It also gave a gamma-GTP (9 h) of 1.6 IU/L, a TERMINAL_BW (24 h) of 198.9 g and an APTT (24 h) of 16.7 s. For the same compound, the Bas (24 h) was 0%, the Eos (24 h) was 0.8% and the Fbg (24 h) was 219.6 mg/dL. The Hb (24 h) was 13.3 g/dL, the Ht (24 h) was 40.1% and the Lym (24 h) was 78.6%. For the same compound, the MCH (24 h) was 22 pg, the MCHC (24 h) was 33.2% and the MCV (24 h) was 66.3 fL. The Mono (24 h) was 9.4%, the Neu (24 h) was 11.4% and the PT (24 h) was 12.3 s. For the same compound, the Plat (24 h) was 102.8 x10_4/uL, the RBC (24 h) was 606.4 x10_4/ul and the Ret (24 h) was 8.7%. The WBC (24 h) was 127.7 x10_2/uL, the KIDNEY_L (24 h) was 0.9 g and the KIDNEY_R (24 h) was 0.9 g. For the same compound, the KIDNEY_TOTAL (24 h) was 1.8 g, the LIVER (24 h) was 9.7 g and the A/G (24 h) was 2.1. For the same compound, the ALP (24 h) was 891 IU/L, the ALT (24 h) was 38.8 IU/L and the AST (24 h) was 68.6 IU/L. For the same compound, the BUN (24 h) was 17 mg/dL, the CRE (24 h) was 0.5 mg/dL and the Ca (24 h) was 10.6 mg/dL. For the same compound, the Cl (24 h) was 103.8 meq/L, the DBIL (24 h) was 0.01 mg/dL and the GLC (24 h) was 179.6 mg/dL. The IP (24 h) was 7.6 mg/dL, the K (24 h) was 5.3 meq/L and the LDH (24 h) was 84.2 IU/L. For the same compound, the Na (24 h) was 136.6 meq/L, the PL (24 h) was 157.6 mg/dL and the RALB (24 h) was 3.9 g/dL. For the same compound, the TBIL (24 h) was 0.3 mg/dL, the TC (24 h) was 85.6 mg/dL and the TG (24 h) was 110.8 mg/dL. The TP (24 h) was 5.8 g/dL and the gamma-GTP (24 h) was 1.6 IU/L.
